Experimental data: ChEMBL document CHEMBL6177931, “Exploring diverse frontiers: Advancements of bioactive 4-aminoquinoline-based molecular hybrids in targeted therapeutics and beyond” (Eur J Med Chem, 2024)
≈ marks a conversion by molar mass, not a printed value.

Key:
HepG2 = assay: Antiproliferative activity against human HepG2 cells assessed as reduction in cell proliferation incubated for 24 hrs by MTT assay; format: functional, cell-based; conditions: HepG2, 24 h
Cholinesterase [1] = molecular target: T1, Cholinesterase (Equus caballus, UniProt P81908); assay: Inhibition of equine serum BChE using […] as substrate preincubated for 10 mins followed by substrate addition and measured after 5 mins by Ellman's reagent based spectrophotometric analysis
T1 sequence (P81908 whole entry): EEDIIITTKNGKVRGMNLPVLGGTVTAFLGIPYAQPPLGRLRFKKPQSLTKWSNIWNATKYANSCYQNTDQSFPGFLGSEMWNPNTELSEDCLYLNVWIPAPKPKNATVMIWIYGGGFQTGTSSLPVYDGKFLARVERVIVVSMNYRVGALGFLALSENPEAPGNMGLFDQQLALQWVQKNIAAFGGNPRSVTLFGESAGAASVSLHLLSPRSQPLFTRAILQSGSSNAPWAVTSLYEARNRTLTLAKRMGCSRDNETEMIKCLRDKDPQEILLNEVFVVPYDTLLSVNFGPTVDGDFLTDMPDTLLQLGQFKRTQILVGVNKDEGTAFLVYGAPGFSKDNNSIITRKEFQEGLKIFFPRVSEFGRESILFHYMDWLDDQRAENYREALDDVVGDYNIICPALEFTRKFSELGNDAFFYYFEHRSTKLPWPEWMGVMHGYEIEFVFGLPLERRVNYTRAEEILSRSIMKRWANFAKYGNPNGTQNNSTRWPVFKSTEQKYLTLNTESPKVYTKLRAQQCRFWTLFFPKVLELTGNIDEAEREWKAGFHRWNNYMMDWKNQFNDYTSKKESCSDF

Acetylcholinesterase [2] = molecular target: T2, Acetylcholinesterase (Electrophorus electricus, UniProt O42275); assay: Inhibition of electric eel AChE using […] as substrate preincubated for 10 mins followed by substrate addition and measured after 5 mins by Ellman's reagent based spectrophotometric analysis
T2 sequence (O42275 whole entry): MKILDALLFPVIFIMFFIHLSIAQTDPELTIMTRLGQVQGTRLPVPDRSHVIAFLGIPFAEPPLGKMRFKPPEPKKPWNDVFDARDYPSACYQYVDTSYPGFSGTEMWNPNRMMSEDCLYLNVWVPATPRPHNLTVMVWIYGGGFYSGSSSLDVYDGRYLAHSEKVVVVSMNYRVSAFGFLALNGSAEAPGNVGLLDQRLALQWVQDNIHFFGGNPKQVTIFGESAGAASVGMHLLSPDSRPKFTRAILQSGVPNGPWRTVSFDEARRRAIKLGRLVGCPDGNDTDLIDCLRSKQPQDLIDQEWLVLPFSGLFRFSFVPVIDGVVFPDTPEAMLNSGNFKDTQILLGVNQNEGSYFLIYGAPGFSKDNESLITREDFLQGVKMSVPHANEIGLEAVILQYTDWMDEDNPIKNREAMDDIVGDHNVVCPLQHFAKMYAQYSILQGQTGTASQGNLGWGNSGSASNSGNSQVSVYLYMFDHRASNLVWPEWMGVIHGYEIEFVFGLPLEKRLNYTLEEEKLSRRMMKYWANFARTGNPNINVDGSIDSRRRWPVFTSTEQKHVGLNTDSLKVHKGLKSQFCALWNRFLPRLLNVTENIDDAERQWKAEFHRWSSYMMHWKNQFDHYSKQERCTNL

Escherichia coli [3] = assay: Antibacterial activity against Escherichia coli MTCC 739 by agar streak dilution method; format: functional
Pseudomonas aeruginosa [4] = assay: Antibacterial activity against Pseudomonas aeruginosa MTCC 741 by agar streak dilution method; format: functional
Bacillus subtilis [5] = assay: Antibacterial activity against Bacillus subtilis MTCC 619 by agar streak dilution method; format: functional
Staphylococcus aureus [6] = assay: Antibacterial activity against Staphylococcus aureus MTCC 96 by agar streak dilution method; format: functional
Acetylcholinesterase [7] = molecular target: T2, Acetylcholinesterase; assay: Inhibition of electric eel AChE using […] as substrate measured after 2 mins by Ellman's reagent based spectrophotometric analysis
Cholinesterase [8] = molecular target: T1, Cholinesterase; assay: Inhibition of equine serum BChE using […] as substrate measured after 2 mins by Ellman's reagent based spectrophotometric analysis
[9] = Cytotoxicity against human Huh-7 cells assessed as reduction in cell viability incubated for 2 days by MTT assay; format: toxicity, cell-based; conditions: time 2 day
[10] = Inhibition of ConA-induced TNF-alpha secretion in female BALB/c mouse splenocyte incubated for 48 hrs by ELISA; format: functional, cell-based
[11] = Inhibition of ConA-induced IL-6 secretion in female BALB/c mouse splenocyte incubated for 48 hrs by ELISA; format: functional, cell-based
[12] = Inhibition of ConA-induced IL-1beta secretion in female BALB/c mouse splenocyte incubated for 48 hrs by ELISA; format: functional, cell-based
Jurkat E6.1 = assay: Cytotoxicity against human Jurkat E6.1 cells assessed as reduction in cell viability incubated for 24 hrs by MTT assay; format: functional, cell-based; conditions: Jurkat E6.1, 24 h
HL-60 [13] = assay: Cytotoxicity against human HL-60 cells assessed as reduction in cell viability incubated for 24 hrs by MTT assay; format: functional, cell-based; conditions: HL-60, 24 h
[14] = Cytotoxicity against human A375P cells assessed as cell viability incubated for 72 hrs by alamar blue reagent based assay; format: functional
[15] = Cytotoxicity against MDCK cells assessed as cell growth inhibition incubated for 72 hrs by MTT assay; format: toxicity, cell-based, Canis lupus familiaris; conditions: dog
[16] = Antiproliferative activity against human Caco-2 cells assessed as cell growth inhibition incubated for 72 hrs by MTT assay; format: toxicity, cell-based
[17] = system: Mycobacterium tuberculosis; assay: Antitubercular activity against Mycobacterium tuberculosis H37Rv assessed as inhibition of bacterial growth at 250 microg/ml relative to control; format: functional
[18] = system: Mycobacterium tuberculosis; assay: Antitubercular activity against Mycobacterium tuberculosis H37Rv; format: functional
MCF7 [19] = assay: Antiproliferative activity against human MCF7 cells; format: functional, cell-based
A549 = assay: Antiproliferative activity against human A549 cells; format: functional, cell-based
Candida albicans = assay: Antifungal activity against Candida albicans MTCC 183 by agar streak dilution method; format: functional
Aspergillus niger = assay: Antifungal activity Aspergillus niger MTCC 282 by agar streak dilution method; format: organism-based
Acetylcholinesterase [20] = molecular target: T2, Acetylcholinesterase; assay: Inhibition of electric eel AChE using […] as substrate measured within 2 mins
Cholinesterase [21] = molecular target: T1, Cholinesterase; assay: Inhibition of equine serum BChE using […] as substrate measured within 2 mins
Cholinesterase [22] = molecular target: Cholinesterase (Homo sapiens, UniProt P06276); assay: Inhibition of human BChE
Chain of Cholinesterase (Homo sapiens, UniProt P06276) (P06276 whole entry): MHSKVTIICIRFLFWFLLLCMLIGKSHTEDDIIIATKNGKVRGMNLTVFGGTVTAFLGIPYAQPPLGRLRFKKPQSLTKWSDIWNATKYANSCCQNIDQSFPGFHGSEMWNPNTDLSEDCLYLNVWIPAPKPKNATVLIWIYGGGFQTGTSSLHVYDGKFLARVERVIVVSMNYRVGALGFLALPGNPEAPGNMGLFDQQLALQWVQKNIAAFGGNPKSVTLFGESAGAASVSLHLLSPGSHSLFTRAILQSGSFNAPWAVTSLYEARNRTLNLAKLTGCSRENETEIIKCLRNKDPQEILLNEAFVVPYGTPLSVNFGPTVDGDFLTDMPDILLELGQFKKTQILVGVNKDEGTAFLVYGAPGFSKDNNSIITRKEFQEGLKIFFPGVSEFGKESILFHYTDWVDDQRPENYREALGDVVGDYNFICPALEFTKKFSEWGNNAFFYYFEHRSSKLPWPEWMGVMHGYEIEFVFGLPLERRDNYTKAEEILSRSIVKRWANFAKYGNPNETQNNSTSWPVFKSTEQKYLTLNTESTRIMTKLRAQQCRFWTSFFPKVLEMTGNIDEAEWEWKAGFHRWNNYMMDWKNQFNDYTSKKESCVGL

Acetylcholinesterase [23] = molecular target: Acetylcholinesterase (Homo sapiens, UniProt P22303); assay: Inhibition of human AChE
Chain of Acetylcholinesterase (Homo sapiens, UniProt P22303) (P22303 whole entry): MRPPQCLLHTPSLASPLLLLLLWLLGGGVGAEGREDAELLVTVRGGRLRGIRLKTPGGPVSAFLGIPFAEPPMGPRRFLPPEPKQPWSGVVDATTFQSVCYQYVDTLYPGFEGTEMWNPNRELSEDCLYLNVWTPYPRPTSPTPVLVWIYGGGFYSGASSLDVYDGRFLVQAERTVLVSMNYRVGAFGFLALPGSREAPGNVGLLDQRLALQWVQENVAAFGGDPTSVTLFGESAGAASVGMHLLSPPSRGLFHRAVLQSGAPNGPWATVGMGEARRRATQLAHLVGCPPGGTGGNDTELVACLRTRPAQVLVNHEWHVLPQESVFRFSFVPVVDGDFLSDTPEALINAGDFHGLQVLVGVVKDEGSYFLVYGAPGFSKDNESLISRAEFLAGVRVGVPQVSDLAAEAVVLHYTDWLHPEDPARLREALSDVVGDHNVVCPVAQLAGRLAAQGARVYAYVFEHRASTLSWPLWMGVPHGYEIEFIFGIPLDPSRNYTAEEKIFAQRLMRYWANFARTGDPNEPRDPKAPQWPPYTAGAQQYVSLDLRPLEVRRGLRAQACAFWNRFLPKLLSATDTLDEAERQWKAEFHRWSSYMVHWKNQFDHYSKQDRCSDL

NCI-H460 = assay: Anticancer activity against human NCI-H460 cells assessed as cell growth inhibition incubated for 72 hrs by MTT assay; format: functional
Z-138 = assay: Anticancer activity against human Z138 cells assessed as cell growth inhibition incubated for 72 hrs by CellTiter96 aqueous Non-Radioactive Cell Proliferation Assay; format: functional
[24] = Anticancer activity against human DND41 cells assessed as cell growth inhibition incubated for 72 hrs by CellTiter96 aqueous Non-Radioactive Cell Proliferation Assay; format: functional
LN-229 = assay: Anticancer activity against human LN-229 cells assessed as cell growth inhibition by MTS assay; format: functional
HCT-116 = assay: Anticancer activity against human HCT-116 cells assessed as cell growth inhibition incubated for 72 hrs by MTT assay; format: functional
K562 = assay: Anticancer activity against human K562 cells assessed as cell growth inhibition incubated for 72 hrs by CellTiter96 aqueous Non-Radioactive Cell Proliferation Assay; format: functional
HL-60 [25] = assay: Anticancer activity against human HL-60 cells assessed as cell growth inhibition incubated for 72 hrs by CellTiter96 aqueous Non-Radioactive Cell Proliferation Assay; format: functional
CAPAN-1 = assay: Anticancer activity against human CAPAN-1 cells assessed as cell growth inhibition by MTS assay; format: functional
MCF7 [26] = assay: Antiproliferative activity against human MCF7 cells assessed as cell growth inhibition incubated for 72 hrs by MTT assay; format: functional
Enterococcus faecalis = assay: Antibacterial activity against Enterococcus faecalis ATCC13047; format: functional
Klebsiella oxytoca = assay: Antibacterial activity against Klebsiella oxytoca ATCC8724; format: functional
Proteus vulgaris = assay: Antibacterial activity against Proteus vulgaris ATCC6380; format: functional
Pseudomonas aeruginosa [27] = assay: Antibacterial activity against Pseudomonas aeruginosa; format: functional
Staphylococcus aureus [28] = assay: Antibacterial activity against Staphylococcus aureus; format: functional
Pseudomonas mevalonii = assay: Antibacterial activity against Pseudomonas mevalonii; format: functional; conditions: Pseudomonas sp. 'mevalonii'
[29] = system: Mycolicibacterium smegmatis; assay: Antibacterial activity against Mycobacterium smegmatis; format: functional
Bacillus subtilis [30] = assay: Antibacterial activity against Bacillus subtilis ATCC19659; format: functional
[31] = system: Staphylococcus epidermidis; assay: Antibacterial activity against Staphylococcus epidermidis; format: functional
Escherichia coli [32] = assay: Antibacterial activity against Escherichia coli ATCC25922; format: functional

In the case of Cc1ncsc1/C=N/NC(=O)c1ccc(Nc2ccnc3ccccc23)cc1, the IC50 (HepG2) is reported as > 80000 nM.

Compound Oc1ccccc1CNCCNc1ccnc2cc(Cl)ccc12 has an IC50 (Cholinesterase [1]) of 30300 nM and an IC50 (Acetylcholinesterase [2]) of 1970 nM.

CCCCCCCCOc1cc(/C=N/Nc2cc(C)nc3ccc(Cl)cc23)cc(OCCCCCCCC)c1OCCCCCCCC gave an MIC (Escherichia coli [3]) of 12.5 µg/mL (≈ 18.4 µM), an MIC (Pseudomonas aeruginosa [4]) of 6.25 µg/mL (≈ 9.19 µM) and an MIC (Bacillus subtilis [5]) of 25 µg/mL (≈ 36.7 µM). It also gave an MIC (Staphylococcus aureus [6]) of 6.25 µg/mL (≈ 9.19 µM).

COc1cc(/C=C/C(=O)NCCNc2cc(C)nc3ccccc23)ccc1OCc1ccc(Br)cc1 showed an IC50 (Acetylcholinesterase [7]) of 620 nM and an IC50 (Cholinesterase [8]) of 1180 nM.

For Cc1ccc(CNCCCCCCNc2ccnc3cc(Cl)ccc23)c(O)c1, the IC50 (Cholinesterase [1]) was 1580 nM and the IC50 (Acetylcholinesterase [2]) was 260 nM.

With CCN(CCCC(C)Nc1ccnc2cc(Cl)ccc12)CCNC(=O)C(F)(F)C1CCN(CCOCCOC)CC1 (stereo not drawn) the CC50 at 48 h [9] was 5750 nM, the IC50 [10] was 24400 nM and the IC50 [11] was 2520 nM. It also gave an IC50 [12] of 1810 nM.

COc1ccc(/C=C/C(=O)c2ccc(Nc3ccnc4cc(Cl)ccc34)cc2)c(OC)c1 showed an IC50 (Jurkat E6.1) of 10400 nM and an IC50 (HL-60 [13]) of 13500 nM.

Clc1ccc2c(NCCCN(CCCCN(CCCNc3ccnc4cc(Cl)ccc34)Cc3ccccc3)Cc3ccccc3)ccnc2c1 showed an IC50 [14] of 269 nM.

Clc1ccc2c(Nc3cccc(-c4nc5ccccc5[nH]4)c3)ccnc2c1 gave an IC50 at 72 h [15] of 20400 nM and a GI50 at 72 h [16] of 1000 nM.

With Oc1ccccc1/C=N/CCCCCCNc1ccnc2cc(Cl)ccc12 the IC50 (Cholinesterase [1]) was 58400 nM and the IC50 (Acetylcholinesterase [2]) was 730 nM.

Compound Cc1cc(C(=O)NNc2ccnc3cc(Cl)ccc23)c2ccccc2n1 has an inhibition at 250 µg/mL [17] of 98% and an MIC [18] of 42 µM (≈ 15.2 µg/mL).

COc1cc(/C=C/C(=O)NCCCNc2cc(C)nc3ccccc23)ccc1OCc1ccccc1 showed an IC50 (Acetylcholinesterase [7]) of 2470 nM and an IC50 (Cholinesterase [8]) of 100 nM.

CC(=O)n1c2ccccc2c(=O)c2c(-n3ccnc3)nc3ccc(Br)cc3c21 gave an IC50 (MCF7 [19]) of 620 nM and an IC50 (A549) of 440 nM.

In the case of CCCOc1ccc(/C=N/Nc2cc(C)nc3ccc(Cl)cc23)cc1, the MIC (Candida albicans) is reported as 12.5 µg/mL (≈ 35.3 µM) and the MIC (Aspergillus niger) is reported as 25 µg/mL (≈ 70.7 µM).

Nc1c2c(nc3c1C(c1ccc(F)cc1)C1=C(O3)C(=O)c3ccccc3C1=O)CCCC2 (stereo not drawn) gave an IC50 (Acetylcholinesterase [20]) of 890 nM and an IC50 (Cholinesterase [21]) of 13800 nM.

COc1ccc(C2CC(c3cccc(Nc4ccnc5cc(Cl)ccc45)c3)=NN2)cc1OC (stereo not drawn) gave an IC50 (Jurkat E6.1) of 3170 nM and an IC50 (HL-60 [13]) of 940 nM.

With S=C(NCCCCNc1c2c(nc3ccccc13)CCCC2)NCCc1c[nH]c2ccccc12 the IC50 (Cholinesterase [22]) was 76 nM and the IC50 (Acetylcholinesterase [23]) was 25 nM.

With COn1cc(CCNC(=S)NCCCCCNc2c3c(nc4ccccc24)CCCC3)c2ccccc21 the IC50 (Cholinesterase [22]) was 39 nM and the IC50 (Acetylcholinesterase [23]) was 70 nM.

C=C(CC(=O)OC)C(=O)NCCCCNc1ccnc2cc(Cl)ccc12 showed a GI50 (NCI-H460) of 2000 nM, a GI50 (Z-138) of 1900 nM and a GI50 [24] of 3100 nM. For the same compound, the GI50 (LN-229) was 1100 nM, the GI50 (HCT-116) was 2000 nM and the GI50 (K562) was 8100 nM. The GI50 (HL-60 [25]) was 1900 nM, the GI50 (CAPAN-1) was 1300 nM and the GI50 (MCF7 [26]) was 800 nM.

Work on O=C(NCCNc1ccnc2cc(Cl)ccc12)c1ccc(-c2nc3ccccc3[nH]2)cc1 yielded an IC50 at 72 h [15] of 100000 nM and a GI50 at 72 h [16] of 16400 nM.

CCCCCCOc1ccc(/C=N/Nc2cc(C)nc3ccc(Cl)cc23)cc1 gave an MIC (Escherichia coli [3]) of 6.5 µg/mL (≈ 16.4 µM), an MIC (Pseudomonas aeruginosa [4]) of 12.5 µg/mL (≈ 31.6 µM) and an MIC (Bacillus subtilis [5]) of 12.5 µg/mL (≈ 31.6 µM). It also gave an MIC (Staphylococcus aureus [6]) of 12.5 µg/mL (≈ 31.6 µM).

For CC1(C)CC[C@]2(C(=O)OCCNc3ccnc4ccc(Cl)cc34)CC[C@]3(C)C(=CC[C@@H]4[C@@]5(C)CC[C@H](O)C(C)(C)[C@@H]5CC[C@]43C)[C@@H]2C1, the MIC (Enterococcus faecalis) was 1250 µg/mL (≈ 1890 µM), the MIC (Klebsiella oxytoca) was 1250 µg/mL (≈ 1890 µM) and the MIC (Proteus vulgaris) was 2500 µg/mL (≈ 3780 µM). The MIC (Pseudomonas aeruginosa [27]) was 2500 µg/mL (≈ 3780 µM), the MIC (Staphylococcus aureus [28]) was 1250 µg/mL (≈ 1890 µM) and the MIC (Pseudomonas mevalonii) was 2500 µg/mL (≈ 3780 µM). It also gave an MIC [29] of 1250 µg/mL (≈ 1890 µM), an MIC (Bacillus subtilis [30]) of 2500 µg/mL (≈ 3780 µM) and an MIC [31] of 1250 µg/mL (≈ 1890 µM). It also gave an MIC (Escherichia coli [32]) of 2500 µg/mL (≈ 3780 µM).
